Reference: patent US20100041646A1, “Phenylene-Bis-Oxazolidine Derivatives and Their Use as Anticoagulants” (BAYER HEALTHCARE AG, priority 2005, published 2010)

Target: human factor Xa (FXa) (Homo sapiens, UniProt P00742)
Experiment: Determination of the factor Xa inhibition (chromogenic substrate)
Format: biochemical
Details: human FXa 0.5 nmol/l, 150 μmol/l Pefachrome FXa, 25° C., extinction at 405 nm
Method: The enzymatic inhibition of human factor Xa (FXa) is measured using the conversion of a chromogenic substrate specific for FXa. Factor Xa cleaves p-nitroaniline from the chromogenic substrate. The determinations are carried out in microtiter plates as follows:
The test substances, in various concentrations, are dissolved in DMSO and incubated for 10 minutes at 25° C. with human FXa (0.5 nmol/l dissolved in 50 mmol/l of Tris buffer [C,C,C-tris(hydroxymethyl)aminomethane], 150 mmol/l of NaCl, 0.1% BSA [bovine serum albumin], pH 20=8.3). Pure DMSO is used as control. The chromogenic substrate (150 μmol/l Pefachrome® FXa from Pentapharm) is then added. After an incubation time of 20 minutes at 25° C., the extinction at 405 nm is determined.

Chain of human factor Xa (FXa) (P00742 235-488 limits assumed): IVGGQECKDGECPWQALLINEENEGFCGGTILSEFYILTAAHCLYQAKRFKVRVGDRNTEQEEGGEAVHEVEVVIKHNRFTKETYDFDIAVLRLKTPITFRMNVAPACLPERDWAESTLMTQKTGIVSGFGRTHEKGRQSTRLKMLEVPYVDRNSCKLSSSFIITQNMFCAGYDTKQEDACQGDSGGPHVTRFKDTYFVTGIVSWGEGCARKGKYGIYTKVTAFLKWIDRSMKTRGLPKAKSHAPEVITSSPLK
Chain of human factor Xa (FXa) (P00742 41-179 partner limits assumed): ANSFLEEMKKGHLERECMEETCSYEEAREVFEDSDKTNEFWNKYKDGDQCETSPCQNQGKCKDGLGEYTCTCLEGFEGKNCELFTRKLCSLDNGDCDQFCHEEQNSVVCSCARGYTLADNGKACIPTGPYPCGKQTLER

IC50 [nM]	SMILES
16	N#CN=C1OCCN1c1ccc(N2C[C@H](CNC(=O)c3ccc(Cl)s3)OC2=O)cc1 [Example 6, 5-Chloro-N-[((5S)-3-{4-[2-(cyanoimino)-1,3-oxazolidin-3-yl]phenyl}-2-oxo-1,3-oxazolidin-5-yl)methyl]thiophene-2-carboxamide]
1.1	N=C1OCCN1c1ccc(N2C[C@H](CNC(=O)c3ccc(Cl)s3)OC2=O)cc1 [Example 1, 5-Chloro-N-({(5S)-3-[4-(2-imino-1,3-oxazolidin-3-yl)phenyl]-2-oxo-1,3-oxazolidin-5-yl}methyl)thiophene-2-carboxamide]
3.1	N=C1OCCCN1c1ccc(N2C[C@H](CNC(=O)c3ccc(Cl)s3)OC2=O)cc1 [Example 5, 5-Chloro-N-({(5S)-3-[4-(2-imino-1,3-oxazinan-3-yl)phenyl]-2-oxo-1,3-oxazolidin-5-yl}methyl)thiophene-2-carboxamide methanesulfonate]
